From US7037644B1, “Means and methods for monitoring non-nucleoside reverse transcriptase inhibitor antiretroviral therapy and guiding therapeutic decisions in the treatment of HIV/AIDS” (ViroLogic, Inc., priority 1998, dated 2006)
“Also recorded” adds a separate entry of the source.

Columns and labels:
[1] = test system: individual virus clones of patient 302: (K103N, P225H) compared with (K103N, I135M, R211K); experiment: Phenotypic susceptibility assay (patient virus clones); assay type: cell-based, HIV; conditions: FIG. 8G
From the text: The resistance test vectors containing a functional luciferase gene cassette were constructed and host cells were transfected with the resistance test vector DNA. The resistant test vectors contained patient-derived reverse transcriptase and protease sequences that were either susceptible or resistant to the antiretroviral agents, such as nucleoside reverse transcriptase inhibitors, non-nucleoside reverse transcriptase inhibitors and protease inhibitors. The resistance test vector viral particles produced by transfecting the resistance test vector DNA into host cells, either in the presence or absence of protease inhibitors, were used to infect target host cells grown either in the absence of NRTI or NNRTI or in the presence of increasing concentrations of the drug. The amount of luciferase activity produced in infected target host cells in the presence of drug was compared to the amount of luciferase produced in infected target host cells in the absence of drug. […] The IC50 values were determined by plotting percent drug inhibition vs. log10 drug concentration.
Host cells were seeded in 10-cm-diameter dishes and were transfected several days after plating with resistance test vector plasmid DNA and the envelope expression vector. […] HIV capsid protein (p24) levels in the harvested cell culture media were determined by an EIA method as described by the manufacturer (SIAC; Frederick, Md.). […]

[2] = test system: RTV-1058 clone 10 (RT L100I, K103N, Y188L); experiment: Phenotypic susceptibility assay (patient RTV clone); assay type: cell-based, HIV-1
From the text: (§1) The resistance test vectors containing a functional luciferase gene cassette were constructed and host cells were transfected with the resistance test vector DNA. The resistant test vectors contained patient-derived reverse transcriptase and protease sequences that were either susceptible or resistant to the antiretroviral agents, such as nucleoside reverse transcriptase inhibitors, non-nucleoside reverse transcriptase inhibitors and protease inhibitors. The resistance test vector viral particles produced by transfecting the resistance test vector DNA into host cells, either in the presence or absence of protease inhibitors, were used to infect target host cells grown either in the absence of NRTI or NNRTI or in the presence of increasing concentrations of the drug. The amount of luciferase activity produced in infected target host cells in the presence of drug was compared to the amount of luciferase produced in infected target host cells in the absence of drug. Drug resistance was measured as the amount of drug required to inhibit by 50% the luciferase activity detected in the absence of drug (inhibitory concentration 50%, IC50). The IC50 values were determined by plotting percent drug inhibition vs. log10 drug concentration.
(§2) Host cells were seeded in 10-cm-diameter dishes and were transfected several days after plating with resistance test vector plasmid DNA and the envelope expression vector. Transfections were performed using a calcium-phosphate precipitation procedure. The cell culture media containing the DNA precipitate was replaced with fresh medium, from one to 24 hours, after transfection. Cell culture media containing resistance test vector viral particles was harvested one to four days after transfection and was passed through a […] filter before being stored at […]. HIV capsid protein (p24) levels in the harvested cell culture media were determined by an EIA method as described by the manufacturer (SIAC; Frederick, Md.). Before infection, target cells (293 and 293/T) were plated in cell culture media. Control infections were performed using cell culture media from mock transfections (no DNA) or transfections containing the resistance test vector plasmid DNA without the envelope expression plasmid. One to three or more days after infection the media was removed and cell lysis buffer (Promega) was added to each well. Cell lysates were assayed for luciferase activity (FIG. 3). The inhibitory effect of the drug was determined using the following equation: % luciferase inhibition=1−(RLUluc [drug]÷RLUluc)×100 where RLUluc [drug] is the relative light unit of luciferase activity in infected cells in the presence of drug and RLUluc is the Relative Light Unit of luciferase activity in infected cells in the absence of drug. IC50 values were obtained from the sigmoidal curves that were generated from the data by plotting the percent inhibition of luciferase activity vs. the log10 drug concentration. The drug inhibition curves are shown in (FIG. 3).
(§3) A resistance test vector was constructed as described in Example 1 from a patient sample designated 98-1058. This patient had been previously treated with ddI, d4T, AZT, 3TC, ddC and abacavir (NRTIs), indinavir and amprenavir (PRIs) and nevirapine (an NNRTI). Isolation of viral RNA and RT/PCR was used to generate a patient derived segment that comprised viral sequences coding for all of RP and aa 1-313 of RT. The PDS was inserted into an indicator gene viral vector to generate a resistance test vector designated RTV-1058. Individual clones of RTV-1058 were selected and were then tested in a phenotypic assay to determine accurately and quantitatively the level of susceptibility to a panel of anti-retroviral drugs. The panel of antiretroviral drugs comprised members of the classes known as NRTIs (AZT, 3TC, d4T, kkI an ddC), NNRTIs (delavirdine and nevirapine), an PRIs (indinavir, nelfinavir, ritonavir, and saquinavir). […]

[3] = test system: RTV-1058 clone 4 (RT K103N); experiment: as above; assay type: cell-based, HIV-1
From the text: as §1, §2, §3

[4] = biological target: RT with P236L substitution (Human immunodeficiency virus type 1 group M subtype B, UniProt P04585, P823L); conditions: P236L substitution sensitizes RT; cited from earlier work
Y188H-RTV = experiment: Phenotypic susceptibility assay (site directed mutant RTV); assay type: cell-based, HIV-1; conditions: Y188H alone
Description: The resistance test vectors containing a functional luciferase gene cassette were constructed and host cells were transfected with the resistance test vector DNA. The resistant test vectors contained patient-derived reverse transcriptase and protease sequences that were either susceptible or resistant to the antiretroviral agents, such as nucleoside reverse transcriptase inhibitors, non-nucleoside reverse transcriptase inhibitors and protease inhibitors. […] The IC50 values were determined by plotting percent drug inhibition vs. log10 drug concentration.
Host cells were seeded in 10-cm-diameter dishes and were transfected several days after plating with resistance test vector plasmid DNA and the envelope expression vector. […] HIV capsid protein (p24) levels in the harvested cell culture media were determined by an EIA method as described by the manufacturer (SIAC; Frederick, Md.). […] The inhibitory effect of the drug was determined using the following equation: % luciferase inhibition=1−(RLUluc [drug]÷RLUluc)×100 where RLUluc [drug] is the relative light unit of luciferase activity in infected cells in the presence of drug and RLUluc is the Relative Light Unit of luciferase activity in infected cells in the absence of drug. […]

[5] = test system: RTV-268, patient 97-268 (RT M41L, D67N, M184V, L210W, T215Y, K219Q, P236L); experiment: Phenotypic susceptibility assay (patient RTV); assay type: cell-based, HIV-1; conditions: patient virus RTV-268 vs reference virus
From the text: as §1, §2
A resistance test vector was constructed as described in Example 1 from a patient sample designated 97-268. This patient had been treated with AZT and 3TC (NRTIs), indinavir and saquinavir (PRIs) and delavirdine (an NNRTI) for periods varying from 1 month to 2 years. Isolation of viral RNA and RT/PCR was used to generate a patient derived segment that comprised viral sequences coding for all of PR and amino acids 1-313 of RT. The patient derived segment was inserted into a indicator gene viral vector to generate a resistance test vector designated RTV-268. RTV-268 was then tested using the phenotypic susceptibility assay to determine accurately and quantitatively the level of susceptibility to a panel of anti-retroviral drugs. This panel of anti-retroviral drugs comprised members of the classes known as NRTIs (AZT, 3TC, d4T, ddI and ddC), NNRTIs (delavirdine and nevirapine), and PRIs (indinavir, nelfinavir, ritonavir, and saquinavir). An IC50 was determined for each drug tested. […]

[6] = test system: RTV with L100I mutation alone; experiment: Phenotypic susceptibility assay (site directed mutant RTV); assay type: cell-based, HIV-1
From the text: as §1, §2
The mutations Y188L, L100I and K103N were introduced alone and in combinationn into resistance test vectors using the mega-primer method for site-directed mutagenesis (Sakar and Sommar, Ibid.).

Compound: CC(C)Nc1cccnc1N1CCN(C(=O)c2cc3cc(NS(C)(=O)=O)ccc3[nH]2)CC1 [delavirdine]
- effect of P225H on resistance associated with K103N [1]: reduces the amount delavirdine resistance
- loss of susceptibility (fold, IC50) [2]: greater than 250 fold
- loss of susceptibility (fold, IC50) [3]: 85 fold

Compound: Cc1ccnc2c1NC(=O)c1cccnc1N2C1CC1 [nevirapine]
- effect of P225H on resistance associated with K103N [1]: does not alter
- reduction of IC50 [4]: 7- to 10 fold
- loss of susceptibility (fold, IC50) vs wild type control RTV (Y188H-RTV): 3.5 fold
- loss of susceptibility (fold, IC50) [2]: greater than 800 fold
- loss of susceptibility (fold, IC50) [3]: greater than 800 fold
- change in susceptibility [5]: no change; also recorded: same as wild type
- loss of susceptibility (fold, IC50) vs wild type control RTV [6]: 3 fold
